target: T1, full length active recombinant SYK enzyme (Homo sapiens, UniProt P43405); test: Inhibition of Syk tyrosine phosphorylation activity (LANCE TR-FRET kinase assay); assay type: biochemical; conditions: activity in the Syk assays, class symbols
T1 construct: full length active recombinant SYK enzyme (Millipore, Calif.); purchased Millipore
In short: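 1 nM full-length active recombinant SYK phosphorylated 550 nM biotin-DEEDYESP-OH with 100 μM ATP in 50 mM Tris pH 7.5, 5 mM MgCl2, 1 mM DTT and 3% DMSO for 1 h at room temperature. After EDTA quench, Eu-anti-phosphotyrosine/SA-APC TR-FRET was read after 1 h. IC50s came from non-linear regression.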

| Compound | IC50 [nM] |
| --- | --- |
| Cc1cc(Nc2nc(N[C@@H]3CCCC[C@@H]3N)cnc2C(N)=O)ccc1N1CCOCC1 [Example 143, 5-((1R,2S)-2-aminocyclohexylamino)-3-(3-methyl-4-morpholinophenylamino)pyrazine-2-carboxamide] | 1 to 10 |
| CC(C)[C@@H](Nc1cnc(C(N)=O)c(Nc2cccc(CN3CCOCC3)c2)n1)C(N)=O [Example 144, (R)-5-(1-amino-3-methyl-1-oxobutan-2-ylamino)-3-(3-(morpholinomethyl)phenylamino)pyrazine-2-carboxamide] | 100 to 1000 |
| CS(=O)(=O)Cc1ccc(Nc2nc(N[C@@H]3CCCC[C@@H]3N)cnc2C(N)=O)cc1 [Example 145, 5-((1R,2S)-2-aminocyclohexylamino)-3-(4-(methylsulfonylmethyl)phenylamino)pyrazine-2-carboxamide] | 10 to 100 |
| CC(C)[C@@H](Nc1cnc(C(N)=O)c(Nc2ccc3c(c2)OCO3)n1)C(N)=O [Example 146, (R)-5-(1-amino-3-methyl-1-oxobutan-2-ylamino)-3-(benzo[d][1,3]dioxol-5-ylamino)pyrazine-2-carboxamide] | 100 to 1000 |
| CC(C)[C@@H](Nc1cnc(C(N)=O)c(Nc2cccc(OC(F)(F)F)c2)n1)C(N)=O [Example 147, (R)-5-(1-amino-3-methyl-1-oxobutan-2-ylamino)-3-(3-(trifluoromethoxy)phenylamino)pyrazine-2-carboxamide] | 100 to 1000 |
| CC(C)[C@@H](Nc1cnc(C(N)=O)c(Nc2ccc(CN3CCOCC3)cc2)n1)C(N)=O [Example 148, (R)-5-(1-amino-3-methyl-1-oxobutan-2-ylamino)-3-(4-(morpholinomethyl)phenylamino)pyrazine-2-carboxamide] | 100 to 1000 |
| CC(C)[C@@H](Nc1cnc(C(N)=O)c(Nc2ccc(-n3ccnc3)cc2)n1)C(N)=O [Example 149, (R)-3-(4-(1H-imidazol-1-yl)phenylamino)-5-(1-amino-3-methyl-1-oxobutan-2-ylamino)pyrazine-2-carboxamide] | 10 to 100 |
| CC(C)[C@@H](Nc1cnc(C(N)=O)c(Nc2ccc(CS(C)(=O)=O)cc2)n1)C(N)=O [Example 150, (R)-5-(1-amino-3-methyl-1-oxobutan-2-ylamino)-3-(4-(methylsulfonylmethyl)phenylamino)pyrazine-2-carboxamide] | 100 to 1000 |
| CC[C@@H](Nc1cnc(C(N)=O)c(Nc2ccc(OC)c(OC)c2)n1)C(N)=O [Example 151, (R)-5-(1-amino-1-oxobutan-2-ylamino)-3-(3,4-dimethoxyphenylamino)pyrazine-2-carboxamide] | 10 to 100 |
| CC[C@@H](Nc1cnc(C(N)=O)c(Nc2ccc(C)cc2)n1)C(N)=O [Example 152, (R)-5-(1-amino-1-oxobutan-2-ylamino)-3-(p-tolylamino)pyrazine-2-carboxamide] | 10 to 100 |
| CS(=O)(=O)c1ccc(Nc2nc(N[C@@H]3CCCC[C@@H]3N)cnc2C(N)=O)cc1 [Example 153, 5-((1R,2S)-2-aminocyclohexylamino)-3-(4-(methylsulfonyl)phenylamino)pyrazine-2-carboxamide] | 1 to 10 |
| CS(=O)(=O)c1cccc(Nc2nc(N[C@@H]3CCCC[C@@H]3N)cnc2C(N)=O)c1 [Example 154, 5-((1R,2S)-2-aminocyclohexylamino)-3-(3-(methylsulfonyl)phenylamino)pyrazine-2-carboxamide] | 10 to 100 |
| Cc1ccc(Nc2nc(N[C@@H](C(N)=O)C(C)C)cnc2C(N)=O)cc1 [Example 155, (R)-5-(1-amino-3-methyl-1-oxobutan-2-ylamino)-3-(p-tolylamino)pyrazine-2-carboxamide] | 10 to 100 |
| CC(C)[C@@H](Nc1cnc(C(N)=O)c(Nc2ccc(S(=O)(=O)N(C)C)cc2)n1)C(N)=O [Example 156, (R)-5-(1-amino-3-methyl-1-oxobutan-2-ylamino)-3-(4-(N,N-dimethylsulfamoyl)phenylamino)pyrazine-2-carboxamide] | 10 to 100 |
| CC(=O)N(C)c1ccc(Nc2nc(N[C@@H](C(N)=O)C(C)C)cnc2C(N)=O)cc1 [Example 157, (R)-5-(1-amino-3-methyl-1-oxobutan-2-ylamino)-3-(4-(N-methylacetamido)phenylamino)pyrazine-2-carboxamide] | 100 to 1000 |
| CC[C@@H](Nc1cnc(C(N)=O)c(Nc2cc(OC)cc(OC)c2)n1)C(N)=O [Example 158, (R)-5-(1-amino-1-oxobutan-2-ylamino)-3-(3,5-dimethoxyphenylamino)pyrazine-2-carboxamide] | 10 to 100 |
| CC[C@@H](Nc1cnc(C(N)=O)c(Nc2ccc(S(C)(=O)=O)cc2)n1)C(N)=O [Example 159, (R)-5-(1-amino-1-oxobutan-2-ylamino)-3-(4-(methylsulfonyl)phenylamino)pyrazine-2-carboxamide] | 10 to 100 |
| CC(C)[C@@H](Nc1cnc(C(N)=O)c(Nc2ccc(S(C)(=O)=O)cc2)n1)C(N)=O [Example 160, (R)-5-(1-amino-3-methyl-1-oxobutan-2-ylamino)-3-(4-(methylsulfonyl)phenylamino)pyrazine-2-carboxamide] | 10 to 100 |
| CC[C@@H](Nc1cnc(C(N)=O)c(Nc2ccc(N(C)C(C)=O)cc2)n1)C(N)=O [Example 161, (R)-5-(1-amino-1-oxobutan-2-ylamino)-3-(4-(N-methylacetamido)phenylamino)pyrazine-2-carboxamide] | 100 to 1000 |
| Cc1ccc(Nc2nc(N[C@@H](C(N)=O)C(C)C)cnc2C(N)=O)cc1C [Example 162, (R)-5-(1-amino-3-methyl-1-oxobutan-2-ylamino)-3-(3,4-dimethylphenylamino)pyrazine-2-carboxamide] | 10 to 100 |
| Cc1cc(C)cc(Nc2nc(N[C@@H](C(N)=O)C(C)C)cnc2C(N)=O)c1 [Example 163, (R)-5-(1-amino-3-methyl-1-oxobutan-2-ylamino)-3-(3,5-dimethylphenylamino)pyrazine-2-carboxamide] | 10 to 100 |
| COc1cc(Nc2nc(N[C@H](CC3CC3)C(N)=O)cnc2C(N)=O)cc(OC)c1 [Example 164, (R)-5-(1-amino-3-cyclopropyl-1-oxopropan-2-ylamino)-3-(3,5-dimethoxyphenylamino)pyrazine-2-carboxamide] | 1 to 10 |
| COc1ccc(Nc2nc(N[C@@H]3CCCC(F)(F)[C@@H]3N)cnc2C(N)=O)cc1OC [Example 165, 5-((1R,2R)-2-amino-3,3-difluorocyclohexylamino)-3-(3,4-dimethoxyphenylamino)pyrazine-2-carboxamide] | 1 to 10 |
| CS(=O)(=O)c1ccc(Nc2nc(N[C@H](CC3CC3)C(N)=O)cnc2C(N)=O)cc1 [Example 166, (R)-5-(1-amino-3-cyclopropyl-1-oxopropan-2-ylamino)-3-(4-(methylsulfonyl)phenylamino)pyrazine-2-carboxamide] | 1 to 10 |
| CS(=O)(=O)c1ccc(Nc2nc(N[C@@H]3CCCC(F)(F)[C@@H]3N)cnc2C(N)=O)cc1 [Example 167, 5-((1R,2R)-2-amino-3,3-difluorocyclohexylamino)-3-(4-(methylsulfonyl)phenylamino)pyrazine-2-carboxamide] | 10 to 100 |
| COc1cc(Nc2nc(N[C@@H]3CCCC(F)(F)[C@@H]3N)cnc2C(N)=O)cc(OC)c1 [Example 168, 5-((1R,2R)-2-amino-3,3-difluorocyclohexylamino)-3-(3,5-dimethoxyphenylamino)pyrazine-2-carboxamide] | 10 to 100 |
